# Source: patent US20260042764A1, “COMPOSITIONS AND METHODS FOR INHIBITION OF KRAS” (TheRas, Inc., priority 2022, published 2026)
# pIC50: −log10 of the molar value.
# Columns and labels:
# [1] = biological target: T1, Avi-KRAS WT (2-169) GTP/RAF1 RBD-3xFLAG (51-131) (Homo sapiens, UniProt P01116); assay: Raf1-KRAS WT-GTP disruption HTRF assay (Biological Example 3); type: binding
# T1 construct: Avi-KRAS WT (2-169)
# Protocol: (§1) Biological Example 3: Disrupting RAS-Effector Binding HTRF Assay
# (§2) A protein:protein interaction (PPI) Homogeneous Time Resolved Fluorescence (HTRF) assay was used to determine the effectiveness of compounds in disrupting KRAS protein and effector (RAF1) binding.
# (§3) The HTRF assay used the following reagents and proteins: (i) 50 nM Avi-KRAS G12D (2-169) GTP/RAF1 RBD-3xFLAG (51-131): (ii) 50 nM Avi-KRAS G12C (2-169) GTP/RAF1 RBD-3xFLAG (51-131): (iii) 50 nM Avi-KRAS G12V (2-169) GTP/RAF1 RBD-3xFLAG (51-131); (iv) 50 nM Avi-KRAS WT (2-169) GTP/RAF1 RBD-3xFLAG (51-131); and (v) 75 nM 3xFLAG-RAF1 RBD (51-131)-Avi. The assay buffer included: 50 mM Tris pH 7.5 (Invitrogen, 15567-027), 100 mM NaCl (Sigma, S5150-IL), 5 mM MgCl2 (Sigma, 63069), 0.1% BSA (Sigma, A7030), 0.01% Tween 20 (Sigma, P7949), 10% DMSO (Cell Signaling, 12611). The bead buffer included: 50 mM Tris pH 7.5 (Invitrogen, 15567-027), 0.01% Tween 20 (Sigma, P7949). An assay volume of 20 μL was used in a 384 well plate-low volume format. Compound titration: 30-0.005 μM, 3x dilution series.
# (§4) The HTRF assay employed the following protocol:
# (§5) Compounds were dispensed in assay plate (384-well, Grenier Bio-One #784075) using Echo (model 555) with dose response settings: 200 nL final volume, titration from 30 μM as a 10-point dilution series. Proteins and HTRF reagents were mixed and dispensed onto plates, 20 μL per well, and then incubated for 1 h at room temperature, with 700 rpm shaking.
# (§6) Plates were analyzed on an Envision plate reader using the following setting: Excitation 320 nm, Bandwidth 75 nm; Emission 615 nm, Bandwidth 85 nm; Gain 100%; Flashes 100; Lag 60 μs. Data was reported as percentage of activity, with DMSO as 100%. Data was plotted and analyzed using Prism 8.
# (§7) The biochemical Raf1-KRAS G12D/G12V/G12C/WT-GTP disruption assay IC50 of selected compounds described herein are shown in Table 12.
# [2] = biological target: T2, Avi-KRAS G12D (2-169) GTP/RAF1 RBD-3xFLAG (51-131) (Homo sapiens, UniProt P01116, G12D); assay: Raf1-KRAS G12D-GTP disruption HTRF assay (Biological Example 3); type: binding
# T2 construct: Avi-KRAS G12D (2-169)
# T2 sequence (P01116 2-169 isoform P01116-2 G12D): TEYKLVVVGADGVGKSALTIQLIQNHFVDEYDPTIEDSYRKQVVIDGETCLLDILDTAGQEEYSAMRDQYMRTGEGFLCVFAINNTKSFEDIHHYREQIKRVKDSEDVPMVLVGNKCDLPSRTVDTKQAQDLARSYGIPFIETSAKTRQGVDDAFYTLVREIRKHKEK
# Protocol: as §1, §2, §3, §4, §5, §6, §7
# [3] = biological target: T3, Avi-KRAS G12C (2-169) GTP/RAF1 RBD-3xFLAG (51-131) (Homo sapiens, UniProt P01116, G12C); assay: Raf1-KRAS G12C-GTP disruption HTRF assay (Biological Example 3); type: binding
# T3 construct: Avi-KRAS G12C (2-169)
# T3 sequence (P01116 2-169 isoform P01116-2 G12C): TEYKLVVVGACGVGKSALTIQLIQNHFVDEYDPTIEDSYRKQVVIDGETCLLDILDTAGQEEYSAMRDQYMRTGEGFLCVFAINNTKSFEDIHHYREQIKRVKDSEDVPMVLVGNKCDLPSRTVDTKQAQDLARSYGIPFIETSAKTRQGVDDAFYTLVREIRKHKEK
# Protocol: as §1, §2, §3, §4, §5, §6, §7
# SW620 cells (KRAS G12V) = assay: Cell-based pERK HTRF assay in SW620 cell (Biological Example 4); details: Homo sapiens
# Method in brief: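 In SW620 cells grown in RPMI with 10% FBS, a 4 h compound treatment (0.25% DMSO, 9-point curve from 1 μM) preceded lysis. Phospho-ERK levels were then read by time-resolved FRET at 615 nm emission.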
# GP2d cells (KRAS G12D) = assay: Cell-based pERK HTRF assay in GP2d cell (Biological Example 2); details: GP2d
# Method in brief: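 Cells grown in DMEM with 10% FBS were exposed to compound for 60 min at 0.25% DMSO, using a 9-point half-log series starting at 1 μM or 100 nM. Lysates were then mixed with d2 and Eu cryptate antibodies for 4–24 h at room temperature, and pERK was read by HTRF.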
# [4] = biological target: T4, Avi-KRAS G12V (2-169) GTP/RAF1 RBD-3xFLAG (51-131) (Homo sapiens, UniProt P01116, G12V); assay: Raf1-KRAS G12V-GTP disruption HTRF assay (Biological Example 3); type: binding
# T4 construct: Avi-KRAS G12V (2-169)
# T4 sequence (P01116 2-169 isoform P01116-2 G12V): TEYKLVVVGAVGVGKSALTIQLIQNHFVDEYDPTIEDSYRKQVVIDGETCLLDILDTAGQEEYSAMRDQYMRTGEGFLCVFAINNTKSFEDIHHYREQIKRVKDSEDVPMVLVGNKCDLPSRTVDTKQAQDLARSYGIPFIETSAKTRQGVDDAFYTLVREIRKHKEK
# Protocol: as §1, §2, §3, §4, §5, §6, §7
# [5] = SW-620, SW620 (KRAS G12V) cells
# T1 sequence (P01116 2-169 isoform P01116-2): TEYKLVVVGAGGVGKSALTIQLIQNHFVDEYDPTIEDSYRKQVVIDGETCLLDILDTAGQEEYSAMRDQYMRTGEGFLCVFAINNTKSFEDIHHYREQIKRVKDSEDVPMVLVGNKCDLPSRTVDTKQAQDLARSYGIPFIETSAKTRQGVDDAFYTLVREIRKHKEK
Compound,"pIC50 ([1]; KRAS WT, GTP-loaded)","pIC50 ([2]; KRAS G12D, GTP-loaded)","pIC50 ([3]; KRAS G12C, GTP-loaded)",pIC50 (SW620 cells (KRAS G12V); [5]),pIC50 (GP2d cells (KRAS G12D); GP2d (KRAS G12D) cells),"pIC50 ([4]; KRAS G12V, GTP-loaded)",pIC50 ([1]; KRAS WT-GTP / RAF1 RBD HTRF),pIC50 ([2]; KRAS G12D-GTP / RAF1 RBD HTRF),pIC50 ([3]; KRAS G12C-GTP / RAF1 RBD HTRF),"pIC50 (SW620 cells (KRAS G12V); SW-620, SW620 cells (KRAS G12V))",pIC50 (GP2d cells (KRAS G12D); GP2d cells (KRAS G12D)),pIC50 ([4]; KRAS G12V-GTP / RAF1 RBD HTRF)
"CCN(c1nc(OC[C@@]23CCCN2C[C@H](F)C3)nc2c(F)c(-c3ccc(F)c4sc(N)c(C#N)c34)c(C(F)(F)F)cc12)[C@H]1C[C@H](C)N(C(=O)c2coc(C)n2)C1 (atropisomer, axis not shown) [Compound 915]",6.00 to 7.00,≥ 7.00,6.00 to 7.00,> 7.00,> 7.00,≥ 7.00,–,–,–,–,–,–
CCN(c1nc(OC[C@@]23CCCN2C[C@H](F)C3)nc2c(F)c(-c3ccc(F)c4sc(N)c(C#N)c34)c(C(F)(F)F)cc12)[C@H]1CCN(C(=O)C2C[C@@H]2F)[C@@H]1C (stereo partly drawn) [Compound 883],6.00 to 7.00,6.00 to 7.00,6.00 to 7.00,> 7.00,> 7.00,6.00 to 7.00,–,–,–,–,–,–
"CCN(c1nc(OC[C@@]23CCCN2C[C@H](F)C3)nc2c(F)c(-c3ccc(F)c4sc(N)c(C#N)c34)c(C(F)(F)F)cc12)[C@H]1CCN(C(=O)N2CC3(CCO3)C2)C1 (atropisomer, axis not shown) [Compound 851]",6.00 to 7.00,6.00 to 7.00,6.00 to 7.00,> 7.00,> 7.00,6.00 to 7.00,–,–,–,–,–,–
"CCN(c1nc(OC[C@@]23CCCN2C[C@H](F)C3)nc2c(F)c(-c3ccc(F)c4sc(N)c(C#N)c34)c(C(F)(F)F)cc12)[C@H]1CCCN(C)C1=O (atropisomer, axis not shown) [Compound 967]",5.00 to 6.00,6.00 to 7.00,5.00 to 6.00,> 7.00,> 7.00,5.00 to 6.00,–,–,–,–,–,–
CCN(c1nc(OC[C@@]23CCCN2C[C@H](F)C3)nc2c(F)c(-c3ccc(F)c4sc(N)c(C#N)c34)c(C(F)(F)F)cc12)[C@H]1CCN(C(=O)OC2CC(OC)C2)[C@@H]1C (stereo partly drawn) [Compound 897],6.00 to 7.00,6.00 to 7.00,6.00 to 7.00,> 7.00,> 7.00,6.00 to 7.00,–,–,–,–,–,–
CCN(c1nc(OC[C@@]23CCCN2C[C@H](F)C3)nc2c(F)c(-c3ccc(F)c4sc(N)c(C#N)c34)c(C(F)(F)F)cc12)[C@H]1CCN(c2nccs2)C1 [Compound 973],–,–,–,–,–,–,5.00 to 6.00,6.00 to 7.00,6.00 to 7.00,> 7.00,> 7.00,6.00 to 7.00
"CCN(c1nc(OC[C@@]23CCCN2C[C@H](F)C3)nc2c(F)c(-c3ccc(F)c4sc(N)c(C#N)c34)c(C(F)(F)F)cc12)[C@H]1CCN(C(=O)[C@@H]2CC2(F)F)[C@H]1C (atropisomer, axis not shown) [Compound 887]",5.00 to 6.00,5.00 to 6.00,5.00 to 6.00,6.00 to 7.00,> 7.00,5.00 to 6.00,–,–,–,–,–,–
"CCN(c1nc(OC[C@@]23CCCN2C[C@H](F)C3)nc2c(F)c(-c3ccc(F)c4sc(N)c(C#N)c34)c(C(F)(F)F)cc12)[C@H]1CCN(C(=O)c2ncc(C)s2)C1 (atropisomer, axis not shown) [Compound 919]",6.00 to 7.00,6.00 to 7.00,6.00 to 7.00,> 7.00,> 7.00,6.00 to 7.00,–,–,–,–,–,–
"CCN(c1nc(OC[C@@]23CCCN2C[C@H](F)C3)nc2c(F)c(-c3ccc(F)c4sc(N)c(C#N)c34)c(C(F)(F)F)cc12)[C@H]1C[C@H]2CN(C(C)(C)C)C(=O)N2C1 (atropisomer, axis not shown) [Compound 936]",5.00 to 6.00,6.00 to 7.00,5.00 to 6.00,> 7.00,> 7.00,5.00 to 6.00,–,–,–,–,–,–
CCN(c1nc(OC[C@@]23CCCN2C[C@H](F)C3)nc2c(F)c(-c3ccc(F)c4sc(N)c(C#N)c34)c(C(F)(F)F)cc12)[C@H]1C[C@H](COC)N(C(=O)C2CC2(F)F)C1 (stereo partly drawn) [Compound 861],6.00 to 7.00,6.00 to 7.00,6.00 to 7.00,> 7.00,> 7.00,6.00 to 7.00,–,–,–,–,–,–
"CCN(c1nc(OC[C@@]23CCCN2C[C@H](F)C3)nc2c(F)c(-c3ccc(F)c4sc(N)c(C#N)c34)c(C(F)(F)F)cc12)[C@H]1C[C@H](C)N(C(=O)c2cocn2)C1 (atropisomer, axis not shown) [Compound 914]",6.00 to 7.00,6.00 to 7.00,6.00 to 7.00,> 7.00,> 7.00,≥ 7.00,–,–,–,–,–,–
"CCN(c1nc(OC[C@@]23CCCN2C[C@H](F)C3)nc2c(F)c(-c3ccc(F)c4sc(N)c(C#N)c34)c(C(F)(F)F)cc12)[C@H]1CCN(C(=O)C2COC2)[C@@H]1C (atropisomer, axis not shown) [Compound 833]",6.00 to 7.00,≥ 7.00,6.00 to 7.00,> 7.00,> 7.00,6.00 to 7.00,–,–,–,–,–,–
CCN(c1nc(OC[C@@]23CCCN2C[C@H](F)C3)nc2c(F)c(-c3ccc(F)c4sc(N)c(C#N)c34)c(C(F)(F)F)cc12)[C@H]1C[C@@H](C)N(C(=O)OC2CC(OC)C2)C1 (stereo partly drawn) [Compound 895],5.00 to 6.00,6.00 to 7.00,6.00 to 7.00,> 7.00,> 7.00,6.00 to 7.00,–,–,–,–,–,–
"CCN(c1nc(OC[C@@]23CCCN2C[C@H](F)C3)nc2c(F)c(-c3ccc(F)c4sc(N)c(C#N)c34)c(C(F)(F)F)cc12)[C@H]1CCN(C(=O)OC2CCOCC2)[C@@H]1C (atropisomer, axis not shown) [Compound 825]",6.00 to 7.00,6.00 to 7.00,6.00 to 7.00,> 7.00,> 7.00,6.00 to 7.00,–,–,–,–,–,–
"CN(c1nc(OC[C@@]23CCCN2C[C@H](F)C3)nc2c(F)c(-c3ccc(F)c4sc(N)c(C#N)c34)c(C(F)(F)F)cc12)[C@H]1CC(=O)N2CCC[C@H]12 (atropisomer, axis not shown) [Compound 934]",6.00 to 7.00,6.00 to 7.00,6.00 to 7.00,> 7.00,> 7.00,6.00 to 7.00,–,–,–,–,–,–
"CCN(c1nc(OC[C@@]23CCCN2C[C@H](F)C3)nc2c(F)c(-c3ccc(F)c4sc(N)c(C#N)c34)c(C(F)(F)F)cc12)[C@H]1CCCOC1 (atropisomer, axis not shown) [Compound 965]",6.00 to 7.00,6.00 to 7.00,6.00 to 7.00,> 7.00,> 7.00,6.00 to 7.00,–,–,–,–,–,–
"CCN(c1nc(OC[C@@]23CCCN2C[C@H](F)C3)nc2c(F)c(-c3ccc(F)c4sc(N)c(C#N)c34)c(C(F)(F)F)cc12)[C@H]1CCN(C(=O)OCC(F)(F)F)C1 (atropisomer, axis not shown) [Compound 849]",6.00 to 7.00,6.00 to 7.00,6.00 to 7.00,> 7.00,> 7.00,6.00 to 7.00,–,–,–,–,–,–
CN(Cc1cnco1)c1nc(OC[C@@]23CCCN2C[C@H](F)C3)nc2c(F)c(-c3ccc(F)c4sc(N)c(C#N)c34)c(C(F)(F)F)cc12 [Compound 908],5.00 to 6.00,6.00 to 7.00,5.00 to 6.00,> 7.00,> 7.00,5.00 to 6.00,–,–,–,–,–,–
